# Biological target: human ether-a-go-go related gene (hERG) channel (Homo sapiens (Human), UniProt Q12809)
# Assay: hERG test (IKr, whole cell patch clamp in HEK293 cells)
# Assay type: cell-based
# Conditions: 1 μmol/L of the compound, HEK293 cells expressing hERG
# From the text: For the purpose of assessing risk of an electrocardiogram QT interval prolongation, effects on delayed rectifier K+ current (IKr), which plays an important role in the ventricular repolarization process of the compound of the present invention, was studied using HEK293 cells expressing human ether-a-go-go related gene (hERG) channel.
# After a cell was retained at a membrane potential of −80 mV by whole cell patch clamp method using an automated patch clamp system (PatchXpress 7000A, Axon Instruments Inc.) and given leakage potential at −50 mV, IKr induced by depolarization pulse stimulation at +40 mV for 2 seconds and, further, repolarization pulse stimulation at −50 mV for 2 seconds was recorded. After the generated current was stabilized, extracellular solution (NaCl: 135 mmol/L, KCl: 5.4 mmol/L, […]: 0.3 mmol/L, CaCl2.2H2O: 1.8 mmol/L, MgCl2.6H2O: 1 mmol/L, glucose: 10 mmol/L, HEPES (4-(2-hydroxyethyl)-1-piperazineethanesulfonic acid): 10 mmol/L, pH=7.4) in which a compound of the present invention had been dissolved at an objective concentration was applied to the cell under the room temperature condition for 10 minutes. From the recording IKr, an absolute value of the tail peak current was measured based on the current value at the resting membrane potential using an analysis software (DataXpress ver. 2, Molecular Devices Corporation).
# Sequence of human ether-a-go-go related gene (hERG) channel (Q12809 whole entry): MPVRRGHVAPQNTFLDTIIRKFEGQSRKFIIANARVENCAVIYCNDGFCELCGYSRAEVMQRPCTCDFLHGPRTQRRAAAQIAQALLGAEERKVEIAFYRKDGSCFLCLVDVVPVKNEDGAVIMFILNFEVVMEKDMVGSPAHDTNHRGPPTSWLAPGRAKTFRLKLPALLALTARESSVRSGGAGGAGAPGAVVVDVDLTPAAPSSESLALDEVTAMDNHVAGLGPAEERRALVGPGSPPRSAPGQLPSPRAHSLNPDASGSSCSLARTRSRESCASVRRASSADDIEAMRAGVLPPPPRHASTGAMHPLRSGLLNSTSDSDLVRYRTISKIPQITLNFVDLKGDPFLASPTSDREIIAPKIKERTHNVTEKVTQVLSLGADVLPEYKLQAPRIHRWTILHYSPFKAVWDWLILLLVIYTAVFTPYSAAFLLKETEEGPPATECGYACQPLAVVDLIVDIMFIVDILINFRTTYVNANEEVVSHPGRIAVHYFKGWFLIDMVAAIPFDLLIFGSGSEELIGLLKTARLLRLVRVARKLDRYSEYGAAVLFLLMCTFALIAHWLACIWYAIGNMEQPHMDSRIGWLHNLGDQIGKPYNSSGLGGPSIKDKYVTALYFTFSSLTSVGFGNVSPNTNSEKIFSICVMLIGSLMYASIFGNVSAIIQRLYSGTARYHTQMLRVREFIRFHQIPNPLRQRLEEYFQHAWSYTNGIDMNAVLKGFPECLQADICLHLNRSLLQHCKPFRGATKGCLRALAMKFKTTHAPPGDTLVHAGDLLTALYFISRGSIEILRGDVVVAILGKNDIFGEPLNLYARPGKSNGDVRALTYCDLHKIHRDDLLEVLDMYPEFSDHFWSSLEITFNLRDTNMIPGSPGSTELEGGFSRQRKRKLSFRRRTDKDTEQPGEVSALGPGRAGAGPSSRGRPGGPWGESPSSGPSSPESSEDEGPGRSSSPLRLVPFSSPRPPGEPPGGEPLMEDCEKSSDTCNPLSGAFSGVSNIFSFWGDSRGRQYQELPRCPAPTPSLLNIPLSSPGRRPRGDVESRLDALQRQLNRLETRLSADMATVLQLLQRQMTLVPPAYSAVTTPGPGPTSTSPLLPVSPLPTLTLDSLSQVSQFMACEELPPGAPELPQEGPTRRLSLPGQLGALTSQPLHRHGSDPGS
smiles,measurement,value
CC(C)Oc1ccc(S(=O)(=O)N2C[C@@H](C)[C@@H](n3nc(CC(=O)O)c4ccc(F)cc43)C2)cc1 [Compound I-37],% inhibition of IKr tail peak current,7.1%
